Our source for the IC50 values is US20250042889A1, “3CLPRO PROTEASE INHIBITOR” (SHANGHAI QILU PHARMACEUTICAL RESEARCH AND DEVELOPMENT …, priority 2021, published 2025).

For this assay, the target named is SARS-COV-2 3CLpro/Mpro protease (Severe acute respiratory syndrome coronavirus 2 (2019-nCoV) (SARS-CoV-2), UniProt P0DTD1). Nature of the assay: Inhibitory effect on SARS-COV-2 3CLpro/Mpro protease by fluorescence resonance energy transfer. It counts as biochemical. The note with it: activity intervals A-D, read-out: IC50 (nM), Inhibition on SARS-CoV-2 3CLpro/Mpro protease.

As to `Cc1cc(C(=O)N2CC(Nc3c(C(=O)N4CCN(CC(F)(F)F)CC4)cc(Br)cc3[N+](=O)[O-])C(F)(F)C2)cc(=O)[nH]1` (stereo not shown) [Example 157], the IC50 was 50 to 100 nM.
Turning to `O=C1C[C@H](C(=O)N2CCC[C@@H](Nc3c(C(=O)N4CCC5(CCCCC5)CC4)cc(Br)cc3[N+](=O)[O-])C2)CCN1` [Example 158], the IC50 lay within 10 to 50 nM.
Under `Cc1cc(C(=O)N2CCC[C@@H](Nc3c(C(=O)N4CC(O)CC(Cl)C4)cc(Br)cc3[N+](=O)[O-])C2)cc(=O)[nH]1` (stereo partly shown) [Example 159] stands less than 10 nM.
Under `Cc1cc(C(=O)N2CC(Nc3c(C(=O)N4CCC5(CCCCC5)CC4)cc(Br)cc3[N+](=O)[O-])C(F)(F)C2)cc(=O)[nH]1` (stereo not shown) [Example 160] stands 10 to 50 nM; under `CNc1cncc(C(=O)N2CC(Nc3c(C(=O)N4C[C@@H](C)O[C@@H](C)C4)cc(Br)cc3[N+](=O)[O-])C(F)(F)C2)c1` (stereo partly shown) [Example 161], 10 to 50 nM.
`CNc1cncc(C(=O)N2C[C@H](Nc3c(C(=O)N4C[C@@H](C)O[C@@H](C)C4)cc(Br)cc3[N+](=O)[O-])C(C)(C)C2)c1` [Example 162]: the IC50 is 10 to 50 nM.
Under `CC(C)(C)C1CCN(C(=O)c2cc(Br)cc([N+](=O)[O-])c2N[C@@H]2CCCN(C(=O)[C@@H]3CCNC(=O)C3)C2)CC1` [Example 163] stands 10 to 50 nM; under `C[C@@H]1CN(C(=O)c2cc(Br)cc([N+](=O)[O-])c2NC2CN(C(=O)c3cncc(I)c3)CC2(F)F)C[C@H](C)O1` (stereo partly shown) [Example 164], 10 to 50 nM; under `O=C(c1cncc(I)c1)N1CC(Nc2c(C(=O)N3CCCCC3)cc(Br)cc2[N+](=O)[O-])C(F)(F)C1` (stereo not shown) [Example 165], 10 to 50 nM.
For the compound `CNc1cncc(C(=O)N2CC(Nc3c(C(=O)N4CCC(C)(C)CC4)cc(Br)cc3[N+](=O)[O-])C(F)(F)C2)c1` (stereo not shown) [Example 166], the IC50 fell in the range of 10 to 50 nM.
The same measure for `O=C(c1cncc(I)c1)N1CC(Nc2c(C(=O)N3CCOCC3)cc(Br)cc2[N+](=O)[O-])C(F)(F)C1` (stereo not shown) [Example 167]: 10 to 50 nM; for `CNc1cncc(C(=O)N2C[C@H](Nc3c(C(=O)N4CCCCC4)cc(Br)cc3[N+](=O)[O-])C(F)(F)C2)c1` [Example 168]: 10 to 50 nM; for `CC1(O)CCN(C(=O)c2cc(Br)cc(C(F)(F)F)c2N[C@@H]2CCCC[C@@H]2NC(=O)c2cncc3cc(Cl)ccc23)CC1` [Example 169]: 10 to 50 nM.
Under `CNc1cncc(C(=O)N2CC(Nc3c(C(=O)N4CCN(CC5CC5)CC4)cc(Br)cc3[N+](=O)[O-])C(F)(F)C2)c1` (stereo not shown) [Example 170] stands 10 to 50 nM.
Under `CNc1cncc(C(=O)N2CC(Nc3c(C(=O)N4CCC5(CCCCC5)CC4)cc(Br)cc3[N+](=O)[O-])C(C)(C)C2)c1` (stereo not shown) [Example 171] stands 10 to 50 nM; under `CNc1cncc(C(=O)N2CC(Nc3c(C(=O)N4CCN(C5CCCCC5)CC4)cc(Br)cc3[N+](=O)[O-])C(F)(F)C2)c1` (stereo not shown) [Example 172], 10 to 50 nM.
Take `CNc1cncc(C(=O)N2CC(Nc3c(C(=O)N4CCC[C@H](C)C4)cc(Br)cc3[N+](=O)[O-])C(C)(C)C2)c1` (stereo partly shown) [Example 173]: the IC50 lay within 10 to 50 nM.
Under `CNc1cncc(C(=O)N2CC(Nc3c(C(=O)N4CCC[C@@H](C)C4)cc(Br)cc3[N+](=O)[O-])C(C)(C)C2)c1` (stereo partly shown) [Example 174] stands 10 to 50 nM.
As for `CNc1cncc(C(=O)N2CC(Nc3c(C(=O)N4CCC(C)(C)CC4)cc(Br)cc3[N+](=O)[O-])C(C)(C)C2)c1` (stereo not shown) [Example 175], the IC50 is 10 to 50 nM.
The same measure for `CNc1cncc(C(=O)N2CC(Nc3c(C(=O)N4CCC5(CCCC5)CC4)cc(Br)cc3[N+](=O)[O-])C(C)(C)C2)c1` (stereo not shown) [Example 176]: 10 to 50 nM; for `CNc1cncc(C(=O)N2CC(Nc3c(C(=O)N4CCC5(CCC5)CC4)cc(Br)cc3[N+](=O)[O-])C(C)(C)C2)c1` (stereo not shown) [Example 177]: 10 to 50 nM.
`CNc1cncc(C(=O)N2CC(Nc3c(C(=O)N4C[C@@H](C)N(CCOC)[C@@H](C)C4)cc(Br)cc3[N+](=O)[O-])C(F)(F)C2)c1` (stereo partly shown) [Example 178]: the IC50 is 50 to 100 nM.
Under `CC1CC(C(=O)N2CCC[C@@H](Nc3c(C(=O)N4C[C@@H](C)O[C@@H](C)C4)cc(Br)cc3[N+](=O)[O-])C2)CC(=O)N1` (stereo partly shown) [Example 179] stands 50 to 100 nM; under `CNc1cncc(C(=O)N2CC(Nc3c(C(=O)N4C[C@H](C)C[C@H](C)C4)cc(Br)cc3[N+](=O)[O-])C(C)(C)C2)c1` (stereo partly shown) [Example 180], 50 to 100 nM.
Under `COCCN1CCN(C(=O)c2cc(Br)cc([N+](=O)[O-])c2NC2CN(C(=O)c3cncc(I)c3)CC2(F)F)CC1` (stereo not shown) [Example 181] stands 10 to 50 nM.
The same measure for `CNc1cncc(C(=O)N2C[C@H](Nc3c(C(=O)N4C[C@@H](C)O[C@@H](C)C4)cc(Br)cc3[N+](=O)[O-])C(F)(F)C2)c1` [Example 182]: 10 to 50 nM; for `O=C(c1cncc(Br)c1)N1C[C@H](Nc2c(C(=O)N3CCC(F)(F)CC3)cc(Br)cc2[N+](=O)[O-])C(F)(F)C1` [Example 183]: 10 to 50 nM.
For the compound `O=C(N[C@H]1CCOC[C@H]1Nc1c(C(=O)N2CCCCC2)cc(Br)cc1[N+](=O)[O-])c1cncc2cc(Cl)ccc12` [Example 184], the IC50 is less than 10 nM.
Under `O=C(N[C@H]1CCOC[C@H]1Nc1c(C(=O)N2CCC(F)(F)CC2)cc(Br)cc1[N+](=O)[O-])c1cncc2cc(Cl)ccc12` [Example 185] stands 10 to 50 nM.
Under `CNc1cncc(C(=O)N2CC(Nc3c(C(=O)N4CCCCC4)cc(Br)cc3[N+](=O)[O-])C(C)(C)C2)c1` (stereo not shown) [Example 186] stands 10 to 50 nM.
The same measure for `CNc1cncc(C(=O)N2C[C@H](Nc3c(C(=O)N4C[C@@H](C)O[C@H](C)C4)cc(Br)cc3[N+](=O)[O-])C(C)(C)C2)c1` [Example 187]: 10 to 50 nM; for `CNc1cncc(C(=O)N2C[C@H](Nc3c(C(=O)N4C[C@H](C)O[C@@H](C)C4)cc(Br)cc3[N+](=O)[O-])C(C)(C)C2)c1` [Example 189]: 10 to 50 nM; for `COCCN1CCN(C(=O)c2cc(Br)cc([N+](=O)[O-])c2N[C@H]2CN(C(=O)c3cncc(I)c3)CC2(C)C)CC1` [Example 190]: 10 to 50 nM.
Take `CNc1cncc(C(=O)N2C[C@H](Nc3c(C(=O)N4CCN(CCOC)CC4)cc(Br)cc3[N+](=O)[O-])C(C)(C)C2)c1` [Example 191]: the IC50 was 10 to 50 nM.
The same measure for `O=C(c1cncc(I)c1)N1C[C@H](Nc2c(C(=O)N3CCC(F)(F)CC3)cc(Br)cc2[N+](=O)[O-])C(F)(F)C1` [Example 192]: 10 to 50 nM.
The same measure for `O=C(N[C@H]1COCC[C@H]1Nc1c(C(=O)N2CCCCC2)cc(Br)cc1[N+](=O)[O-])c1cncc2cc(Cl)ccc12` [Example 193]: 10 to 50 nM; for `O=C(N[C@H]1COCC[C@H]1Nc1c(C(=O)N2CCCCC2)cc(Br)cc1[N+](=O)[O-])c1cncc2ccccc12` [Example 194]: 10 to 50 nM.
Regarding `COCCN1[C@H](C)CN(C(=O)c2cc(Br)cc([N+](=O)[O-])c2N[C@@H]2COCC[C@@H]2NC(=O)c2cncc3ccccc23)C[C@@H]1C` [Example 195], the IC50 fell in the range of 10 to 50 nM.
Under `CNc1cncc(C(=O)N[C@H]2CCCC[C@H]2Nc2c(C(=O)N3CCCCC3)cc(Br)cc2[N+](=O)[O-])c1` [Example 196] stands 10 to 50 nM; under `O=C(c1cncc(Br)c1)N1C[C@H](Nc2c(C(=O)N3CCCCC3)cc(Br)cc2[N+](=O)[O-])C(F)(F)C1` [Example 197], 10 to 50 nM; under `CNc1cncc(C(=O)N[C@H]2CCCC[C@H]2Nc2c(C(=O)N3C[C@@H](C)O[C@@H](C)C3)cc(Br)cc2[N+](=O)[O-])c1` [Example 198], 10 to 50 nM.
As to `CNc1cncc(C(=O)N2C[C@H](Nc3c(C(=O)N4C[C@@H](C)O[C@H](C)C4)cc(Br)cc3[N+](=O)[O-])C(F)(F)C2)c1` [Example 199], the IC50 was 50 to 100 nM.
The same measure for `CNc1cncc(C(=O)N2CCC[C@@H](Nc3c(C(=O)N4CCOCC4)cc(Br)cc3[N+](=O)[O-])C2)c1` [Example 200]: 10 to 50 nM.
Under `CNc1cncc(C(=O)N[C@H]2CCOC[C@H]2Nc2c(C(=O)N3CCCCC3)cc(Br)cc2[N+](=O)[O-])c1` [Example 201] stands 10 to 50 nM.
The same measure for `CNc1cncc(C(=O)N2C[C@H](Nc3c(C(=O)N4C[C@H](C)C[C@@H](C)C4)cc(Br)cc3[N+](=O)[O-])C(F)(F)C2)c1` [Example 202]: 10 to 50 nM; for `C[C@@H]1CN(C(=O)c2cc(Br)cc([N+](=O)[O-])c2N[C@H]2CN(C(=O)c3cncc(Br)c3)CC2(F)F)C[C@H](C)O1` [Example 203]: 10 to 50 nM.
Regarding `O=C1CC(C(=O)N2CCC[C@@H](Nc3c(C(=O)N4CCCCC4)cc(Br)cc3[N+](=O)[O-])C2)c2ccccc2N1` (stereo partly shown) [Example 204], the IC50 was in the range of 10 to 50 nM.
The same measure for `O=C(N[C@H]1CCOC[C@H]1Nc1c(C(=O)N2CCCCC2)cc(Br)cc1[N+](=O)[O-])c1cncc2ccccc12` [Example 205]: less than 10 nM; for `O=C(N[C@H]1COCC[C@H]1Nc1c(C(=O)N2CCC(F)(F)CC2)cc(Br)cc1[N+](=O)[O-])c1cncc2cc(Cl)ccc12` [Example 206]: 50 to 100 nM.
The same measure for `O=C(N[C@H]1CCCC[C@H]1Nc1c(C(=O)N2C[C@@H](O)C[C@@H](NC(=O)C(F)(F)F)C2)cc(Br)cc1C(F)(F)F)c1cncc2cc(Cl)ccc12` [Example 207]: 10 to 50 nM; for `COCCN1CCN(C(=O)c2cc(Br)cc([N+](=O)[O-])c2N[C@H]2CN(C(=O)c3cncc(I)c3)CC2(F)F)CC1` [Example 208]: 10 to 50 nM; for `O=C(c1cncc(I)c1)N1C[C@H](Nc2c(C(=O)N3CCCCC3)cc(Br)cc2[N+](=O)[O-])C(F)(F)C1` [Example 209]: 10 to 50 nM.
For the compound `C[C@@H]1CN(C(=O)c2cc(Br)cc(C(F)(F)F)c2N[C@@H]2CCOC[C@@H]2NC(=O)c2cncc3ccccc23)C[C@H](C)O1` [Example 210], the IC50 lay in the range of 10 to 50 nM.
The same measure for `COCCN1[C@H](C)CN(C(=O)c2cc(Br)cc([N+](=O)[O-])c2N[C@@H]2CCOC[C@@H]2NC(=O)c2cncc3ccccc23)C[C@@H]1C` [Example 211]: 10 to 50 nM; for `CNc1cncc(C(=O)N2CCC[C@@H](Nc3c(C(=O)N4C[C@@H](C)O[C@H](C)C4)cc(Br)cc3[N+](=O)[O-])C2)c1` [Example 212]: 10 to 50 nM.
